The values that follow come from patent publication US7531555B2, “Compositions and methods for selective inhibition of nicotine acetylcholine receptors” (University of Florida Research Foundation, Inc., priority 2003, dated 2009).

Like-named read-outs stand apart in the source and are kept apart here.

In one experiment the test system is mice. In words: Hot-plate test, blockade of nicotine-induced antinociception. In kind it is in vivo. As for the experimental part:
(§1) Animals. Male ICR mice (20-25 g) obtained from Harlan Laboratories (Indianapolis, Ind.) were used throughout the study. Animals were housed in groups of six and had free access to food and water. Adult, male Long-Evans rats (350-460 g), obtained from Harlan (Dublin, Va.), were individually housed in a temperature-controlled (20-22° C.) environment with a 12-hour light-dark cycle (lights on at 7 a.m.). Rats were maintained within the indicated weight range by restricted post-session feeding and had ad libitum water in their home cages. Rats were drug-naive at the beginning of the study. Animals were housed in an AALAC approved facility and the study was approved by the Institutional Animal Care and Use Committee of Virginia Commonwealth University.
2. Hot-plate Test. Mice were placed into a 10 cm wide glass cylinder on a hot plate (Thermojust Apparatus) maintained at 55.0° C. Two control latencies at least 10 minutes apart were determined for each mouse. […] Antinociceptive response was calculated as percent maximum possible effect (% MPE), where % MPE=[(test-control)/(40-control)×100]. The reaction time was scored when the animal jumped or licked its paws. […]
The doses of nicotine used in the different tests represent approximately an ED84 (Effective dose 84%) which were determined from previous works (Damaj et al. Psychopharmacology (Berl), 1995, 117:67-73). […]
Background: Thermal pain tests record how soon the animal reacts.

The subject of the next experiment is rats. In words: Nicotine drug discrimination in rats. In kind it is in vivo. On the procedure:
as §1
Statistical analysis. Statistical analysis of all analgesic and in vivo studies was performed using either t-test or analysis of variance (ANOVA) with Tukey's test post hoc test when appropriate. All differences were considered significant at p<0.05. AD50 values with 95% CL for behavioral data were calculated by unweighted least-squares linear regression as described by Tallarida and Murray (Tallarida and Murray Manual of Pharmacological Calculations with Computer Programs. 1987, Springer-Verlag, New York).

Experiment [1] addresses T1, α7 homomeric neuronal nAChR (Rattus norvegicus, UniProt Q05941).
T1 construct: expressed in transfected cells; host or cells: Xenopus laevis oocytes injected with cRNA; clone from Dr. Jim Boulter (UCLA)
The experiment in a line: Voltage clamp of Xenopus oocytes expressing α7 nAChR. In kind it is cell-based. On the procedure: Mature (>9 cm) female Xenopus laevis African frogs (NASCO, Ft. Atkinson, Wis.) were used as a source of oocytes. Prior to surgery, frogs were anesthetized by placing the animal in a 1.5 g/l solution of MS222 (3-aminobenzoic acid ethyl ester) for 30 minutes. Oocytes were removed from an incision made in the abdomen.
In order to remove the follicular cell layer, harvested oocytes were treated with 1.25 mg/ml collagenase from Worthington Biochemical Corporation (Freehold, N.J.) for 2 hours at room temperature in calcium-free Barth's solution (88 mM NaCl, 10 mM HEPES pH 7.6, 0.33 mM MgSO4, 0.1 mg/ml gentamicin sulfate). Subsequently, stage 5 oocytes were isolated and injected with 50 nl (5-20 ng) each of the appropriate subunit cRNAs. Recordings were made 2 to 15 days after injection.
Rat neuronal nAChR clones and mouse muscle nAChR cDNA clones were used. The wild-type clones were obtained from Dr. Jim Boulter (UCLA). The rat α6/3 (Dowell et al. J Neurosci, 2003, 23:8445-8452) clone was obtained from Michael McIntosh (University of Utah) and expressed in Xenopus oocytes in combinations with rat β2 and β3. […] The TM2 domain is understood to line the pore of the channel, with alpha helix structure. The 7′ position may actually be directed away from the actual pore lining, but this residue is highly conserved in all of the nAChR. It is valine in all of them except α9 (isoleucine) and β1, where it is alanine. The TM2 mutation in the α6/3 chimera was corrected by using QuickChange (Stratagene) according to their protocols. The corrected α6/3 chimera sequence was confirmed by restriction diagnostics and by automated fluorescent sequencing (University of Florida core facility). The corrected clone was expressed as above in Xenopus oocytes with β2 and β3 and compared to the wild-type α3 co-expressed with β2 and β3.
After linearization and purification of cloned cDNAs, RNA transcripts were prepared in vitro using the appropriate mMessage mMachine kit from Ambion Inc. (Austin, Tex.).
Electrophysiology. The majority of experiments were conducted using OpusXpress 6000A (Axon Instruments, Union City Calif.). OpusXpress is an integrated system that provides automated impalement and voltage clamp of up to eight oocytes in parallel. Cells were automatically perfused with bath solution, and agonist solutions were delivered from a 96-well plate. Both the voltage and current electrodes were filled with 3 M KCl. The agonist solutions were applied via disposable tips, which eliminated any possibility of cross-contamination. Drug applications alternated between ACh controls and experimental applications. Flow rates were set at 2 ml/min for experiments with α7 receptors and 4 ml/min for other subtypes. Cells were voltage-clamped at a holding potential of −60 mV. Data were collected at 50 Hz and filtered at 20 Hz. Agonist applications were 12 seconds in duration followed by 181-second washout periods for α7 receptors and 8 seconds with 241-second wash periods for other subtypes. For some experiments, particularly under conditions where residual inhibition precluded making repeated measurements from single cells (see below), manual oocyte recordings were made as previously described (Papke and Papke Br J of Pharmacol, 2002, 137:49-61). In brief, Warner Instruments (Hamden, Conn.) OC-725C oocyte amplifiers were used, and data were acquired with a minidigi or digidata 1200A with pClamp9 software (Axon Instruments). Sampling rates were between 10 and 20 Hz and the data were filtered at 6 Hz. Cells were voltage clamped at a holding potential of −50 mV.
Experimental protocols and data analysis. Each oocyte received two initial control applications of ACh, an experimental drug application (or co-application of ACh and TMPH), and then follow-up control application(s) of ACh. The control ACh concentrations for α1β1γδ, α3β4, α4β2, α3β2, α3β2α5, α3β2β3, α6/3β2β3 α6β4β3 and α7, receptors were 30 μM, 100 μM, 10 μM, 30 μM, 1 μM 100 μM 100 μM 100 μM and 300 μM, respectively. […]

T1 sequence (Q05941 23-502): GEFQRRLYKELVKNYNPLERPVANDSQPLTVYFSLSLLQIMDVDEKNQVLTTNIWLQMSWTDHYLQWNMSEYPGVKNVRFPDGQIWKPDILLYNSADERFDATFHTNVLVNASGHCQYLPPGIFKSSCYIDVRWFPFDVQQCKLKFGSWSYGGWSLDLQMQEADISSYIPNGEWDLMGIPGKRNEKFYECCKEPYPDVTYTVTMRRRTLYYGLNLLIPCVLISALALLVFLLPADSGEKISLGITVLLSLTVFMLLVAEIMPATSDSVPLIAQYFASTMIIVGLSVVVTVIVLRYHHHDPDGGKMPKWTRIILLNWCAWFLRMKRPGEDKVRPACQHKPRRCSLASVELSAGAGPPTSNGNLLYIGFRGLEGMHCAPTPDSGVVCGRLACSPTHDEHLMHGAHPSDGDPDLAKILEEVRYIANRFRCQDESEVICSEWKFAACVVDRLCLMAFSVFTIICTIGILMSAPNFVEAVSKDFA

As for `CCCCCCC(=O)OC1CC(C)(C)NC(C)(C)C1` [TMPH, 2,2,6,6-tetramethylpiperidin-4-yl heptanoate], the “time at which nicotine's effect recovered fully to pre-treatment value, hot-plate” value with mice (pretreatment with TMPH 5 mg/kg) is 60 min. Besides, the “antinociception by TMPH itself, hot-plate” value in the experiment with mice (s.c. injection, at the indicated doses and times) is “did not cause antinociception”. Also, the “effect of TMPH-nicotine combination on response rates” value in the experiment with rats (compared to vehicle, any dose combination tested, p>0.05) is “did not alter response rates”. In addition, the “nicotine-lever responding by TMPH alone” value in the experiment on rats (doses at which antagonism was observed (data not shown)) was “did not produce nicotine-lever responding”. In addition, in experiment [1] (after a 5-minute wash), the reversibility of inhibition result was “significant recovery”. The IC50 worked out at 1200 ± 200 nM in experiment [1] (decrease in net charge, 300 μM ACh co-applied with TMPH, read-out: IC50 (area)); 1000 ± 100 nM in experiment [1] (decrease in peak current amplitude, 300 μM ACh co-applied with TMPH, read-out: IC50 (peak)); 16000 ± 4000 nM in experiment [1] (inhibition still present after 5-minute wash, read-out: IC50 (recovery)). In addition, the “IC50 net charge/IC50 peak” value in experiment [1] (ratio) came to 1.2. The “IC50 recovery/IC50 net charge” value in experiment [1] (ratio) was determined as 13.3.

The IC50 is the concentration that inhibits the measured activity by half.
